{
  "source": "patent US12168677B2",
  "about": "“Proteins for the treatment of epithelial barrier function disorders” (Genevive, Inc., priority 2017, dated 2024)",
  "key": {"[1]": {"system": "DSS treated mice", "experiment": "DSS model: colon length", "assay_type": "in vivo, C57BL/6 mice", "details": "50 nmoles/kg i.p. b.i.d.; 2.5% DSS 6 days", "description": "Eight-week old C57BL/6 mice were housed 5 animals were cage and given food and water ad libitum for 7 days. Following the 7-day acclimation period, treatments were initiated concurrently with addition of 2.5% DSS to the drinking water. […] The mice were treated with 2.5% dextran sodium sulfate (DSS) in their drinking water for 6 days. Treatments were continued with SG-15 or […]-GLP2 twice a day (b.i.d.) in the morning and evening (every 8 and 16 hr) with i.p. injections at 50 nmoles/kg. Fresh 2.5% DSS drinking water was prepared every 2 days. Colon length was measured in mice included in the DSS model described in Example 1E. […] The graph in FIG. 8 represents data pooled from the 2 individual experiments (n=20)."}, "[2]": {"system": "DSS treated mice", "experiment": "DSS model: colon weight to length ratio", "assay_type": "in vivo, C57BL/6 mice", "details": "Gly2-GLP2 i.p. b.i.d.; 2.5% DSS 6 days", "description": "Eight-week old C57BL/6 mice were housed 5 animals were cage and given food and water ad libitum for 7 days. Following the 7-day acclimation period, treatments were initiated concurrently with addition of 2.5% DSS to the drinking water. […] The mice were treated with 2.5% dextran sodium sulfate (DSS) in their drinking water for 6 days. Treatments were continued with SG-15 or […]-GLP2 twice a day (b.i.d.) in the morning and evening (every 8 and 16 hr) with i.p. injections at 50 nmoles/kg. Fresh 2.5% DSS drinking water was prepared every 2 days. Colon length and weight were measured in mice included in the DSS model study described in Example 1E. […] Accordingly, the ratio of tissue weight to length can be used as a readout of DSS induced tissue damage. SG-15 administration to DSS treated mice (Example 1E) reduced the colon weight to length ratio elicited by DSS (DSS=3.9 mg/mm, DSS+SG-15=3.5 mg/mm; p=0.13). […] However, no difference was observed between treated with SG-15 as compared to treatment with […]GLP2. The graph in FIG. 9 represents data pooled from the 2 individual experiments (n=20)."}, "[3]": {"system": "HCT8 enterocytes and HT29-MTX goblet cells", "experiment": "Epithelial cell wound healing (Oris Cell Migration assay)", "assay_type": "cell-based, human", "details": "SG protein 1 μg/ml, EGF 30 ng/ml, staurosporine 100 nM; 48 hours", "description": "HCT8 enterocytes and HT29-MTX goblet cells were used in wound healing studies. The 96 well Oris Cell Migration assay containing plugs preventing cell attachment in the center of each well was used according to the manufacturer's instructions (Platypus Technologies, Madison, WI). The migration assay plates were warmed to room temperature prior to use and plugs were removed from 100% confluence wells prior to cell addition. The HCT8 enterocyte and HT29-MTX goblet cell lines were used at a 9:1 ratio with a total of 5×10^4 total cells added per well (4.5×10^4 HCT8 cells and 0.5×10^4 HT29-MTX cells). […] Plugs were then removed from all control and sample wells. Control wells included cells treated with the diluent vehicle as the blank, 30 ng/ml epidermal growth factor (EGF) as the positive control, and 100 nM staurosporine as the negative control, all diluted in cRPMI. Sample wells contained SG-15 protein at a concentration of 1 μg/ml diluted in cRPMI. 100% and 0% wells were cultured in cRPMI. […] Prior to staining for viable cells, plugs were removed from the 0% wells. Treatment media was removed and cells were washed in PBS containing 0.9 mM CaCl2) and 0.5 mM MgCl2. […] Samples were normalized between 100% and 0% samples and values expressed as a percent growth."}, "[4]": {"set-up": "species or system mice", "details": "mouse, in vivo, ip"}, "[5]": {"system": "HCT8 enterocytes and HT29-MTX goblet cells", "experiment": "Co-culture trans-epithelial electrical resistance (TEER) assay with heat killed E. coli challenge", "assay_type": "cell-based, human", "details": "staurosporine 100 nM, negative control", "description": "Assays were performed as described below in trans-well plates where co-cultures of multiple cell types were performed utilizing a permeable membrane to separate cells. In the apical (top) chamber, human colonic epithelial cells, consisting of a mixture of enterocytes and goblet cells, were cultured until cells obtained tight junction formation and barrier function capacity as assessed by measurement of trans-epithelial electrical resistance (TEER). In the basolateral chamber, monocytes were cultured separately. Epithelial cells were primed with inflammatory cytokines. The assays measured the effect of a therapeutic protein, i.e., SG-15, on epithelial barrier function, wound healing, and production of cytokines. Cell culture. The HCT8 human enterocyte cell line (ATCC Cat. No. CCL-244) was maintained in RPMI-1640 medium supplemented with 10% fetal bovine serum, 100 IU/ml penicillin, 100 μg/ml streptomycin, 10 μg/ml gentamicin and 0.25 μg/ml amphotericin (cRPMI). […] Epithelial cells were trypsinized from culture flasks and viable cells determined by trypan blue counting. […] Trans-epithelial electrical resistance (TEER) readings were measured after the IFN-γ treatment and were used as the pre-treatment TEER values. […]"}},
  "note": "Entries after “also recorded” stand apart in the source; their conditions may differ.",
  "data": [
    {"molecule": "Gly2-GLP2: a stable analog of glucagon-like peptide 2 (GLP2), positive control in DSS model", "values": [
      {"measurement": "Colon length / colon shortening elicited by DSS treatment", "setting": "[1]", "value": "significant improvement in colon length"},
      {"measurement": "Colon length, Gly2-GLP2 compared with SG protein", "setting": "[1]", "value": "significant improvement over SG-16; also recorded: significant improvement over SG-17; also recorded: significant improvement over SG-18"},
      {"measurement": "Colon weight to length ratio, effect of positive control in DSS mice", "setting": "[2]", "value": "significant reduction in colon weight to length ratio"}
    ]},
    {"molecule": "epidermal growth factor (NSDSECPLSHDGYCLHDGVCMYIEALDKYACNCVVGYIGERCQYRDLKWWELR; Epidermal growth factor; UniProt P01133 971-1023, looked up) [EGF, positive control in wound healing assay, reference compound]", "values": [
      {"measurement": "Wound healing, percent growth", "setting": "[3]", "value": "increasing proliferation"}
    ]},
    {"molecule": "fluorescently labeled bovine serum albumin: tracer protein for tracking studies following intraperitoneal injection", "values": [
      {"measurement": "Time at which protein reached the colon after i.p. delivery", "setting": "[4]", "value": 6, "unit": "h"}
    ]},
    {"molecule": "CN[C@@H]1C[C@H]2O[C@@](C)([C@@H]1OC)n1c3ccccc3c3c4c(c5c6ccccc6n2c5c31)C(=O)NC4", "note": "[staurosporine, reference compound]", "values": [
      {"measurement": "Effect of control compound on TEER", "setting": "[5]", "value": "drastic decrease in TEER"},
      {"measurement": "Wound healing, percent growth", "setting": "[3]", "value": "suppressing cell proliferation"}
    ]}
  ]
}
